Tests used:
Experiment in all cases: agar diffusion antibacterial susceptibility assay
[1] = system: B. subtilis ATCC 6633; assay type: cell-based, Bacillus subtilis; settings: ciprofloxacin in H2O, concentration per footnote mark c
From the text: (§1) Representative Gram-positive strains included Bacillus subtilis, Staphylococcus aureus and Micrococcus luteus. The Gram-negative strains studied included Pseudomonas aeruginosa (a wild type K799/wt and a penetration mutant strain K799/61), Escherichia coli, and Acinetobacter baumannii.

[2] = system: S. aureus SG 511; assay type: cell-based, Staphylococcus aureus; settings: ciprofloxacin in H2O, concentration per footnote mark b
From the text: as §1

[3] = system: M. luteus ATCC 10240; assay type: cell-based, Micrococcus luteus; settings: ciprofloxacin in H2O, concentration per footnote mark b
From the text: as §1

[4] = system: E. coli X580; assay type: cell-based, Escherichia coli; settings: ciprofloxacin in H2O, concentration per footnote mark d
From the text: as §1

[5] = system: A. baumannii ATCC 17961; assay type: cell-based, Acinetobacter baumannii; settings: ciprofloxacin in H2O, concentration per footnote mark b; 100 μM 2,2′-bipyridine
From the text: The siderophore-ciprofloxacin conjugates 13 and 23 were first evaluated for their ability to inhibit the growth of bacteria using the agar well diffusion test. Representative Gram-positive strains included Bacillus subtilis, Staphylococcus aureus and Micrococcus luteus. The Gram-negative strains studied included Pseudomonas aeruginosa (a wild type K799/wt and a penetration mutant strain K799/61), Escherichia coli, and Acinetobacter baumannii.

**Q.** Which “Diameter of growth inhibition zones” value [1] does the source give for `O=C(O)c1cn(C2CC2)c2cc(N3CCNCC3)c(F)cc2c1=O` [Ciprofloxacin, ciprofloxacin] here?
**A.** 28^c mm

**Q.** And the “Diameter of growth inhibition zones” value [2]?
**A.** 28^b mm

**Q.** And the “Diameter of growth inhibition zones” value [3]?
**A.** 12P^b

**Q.** And the “Diameter of growth inhibition zones” value [4]?
**A.** 31^d mm

**Q.** And the “Diameter of growth inhibition zones” value [5]?
**A.** 15p^b
